Several values for one entry are separate records, joined by “and”; a condition that tells them apart may be missing. Identical values can stand only once. Inconclusive results and toxic doses are left out. Rule for the calls: active = survival T/C of 150% or more; inactive = T/C below 125% in these data. Positions of bridges follow the written chain, without caps; N, C: chain ends. Residues, ends and D or L forms follow the SMILES beside them.
System: CD2F1 mice, L1210 leukemia ip, survival T/C
Assay: NCI In Vivo Anticancer Drug Screen. Data for tumor model L1210 Leukemia (intraperitoneal) in CD2F1 (CDF1) mice
Conditions: higher = longer survival
Procedure, shortened: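 Ratio T/C, where T is the treated-group value and C the vehicle-dosed control value, from mice implanted with a transplantable tumor.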

[1] = endpoint: mean survival time, dose: 100.0 mg/kg/injection, schedule: Q01DX001 (ip), vehicle: saline
[2] = endpoint: mean survival time, dose: 200.0 mg/kg/injection, schedule: Q01DX001 (ip), vehicle: saline
[3] = endpoint: mean survival time, dose: 400.0 mg/kg/injection, schedule: Q01DX009 (ip), vehicle: saline with Tween-80
[4] = endpoint: mean survival time, dose: 100.0 mg/kg/injection, schedule: Q04DX003 (ip), vehicle: saline with Tween-80
[5] = endpoint: mean survival time, dose: 200.0 mg/kg/injection, schedule: Q04DX003 (ip), vehicle: saline with Tween-80
[6] = endpoint: mean survival time, dose: 400.0 mg/kg/injection, schedule: Q04DX003 (ip), vehicle: saline with Tween-80
[7] = endpoint: mean survival time, dose: 100.0 mg/kg/injection, schedule: Q01DX009 (ip), vehicle: saline with Tween-80
[8] = endpoint: mean survival time, dose: 200.0 mg/kg/injection, schedule: Q01DX009 (ip), vehicle: saline with Tween-80
[9] = endpoint: mean survival time, dose: 100.0 mg/kg/injection, schedule: Q04DX003 (ip), vehicle: saline
[10] = endpoint: mean survival time, dose: 200.0 mg/kg/injection, schedule: Q04DX003 (ip), vehicle: saline
[11] = endpoint: mean survival time, dose: 100.0 mg/kg/injection, schedule: Q01DX001 (ip), vehicle: Klucel (hydroxypropylcellulose) (HPC)
[12] = endpoint: mean survival time, dose: 200.0 mg/kg/injection, schedule: Q01DX001 (ip), vehicle: Klucel (hydroxypropylcellulose) (HPC)
[13] = endpoint: mean survival time, dose: 400.0 mg/kg/injection, schedule: Q01DX001 (ip), vehicle: Klucel (hydroxypropylcellulose) (HPC)

Measured: T/C

[NH-]CC[NH-].[NH-]CC[NH-].[NH-]CC[NH-].[Ni]
inactive: endpoint: mean survival time, dose: 6.25 mg/kg/injection, schedule: Q01DX009 (ip), vehicle: saline 103 % of control | endpoint: mean survival time, dose: 6.25 mg/kg/injection, schedule: Q04DX003 (ip), vehicle: saline 97 % of control | endpoint: mean survival time, dose: 12.5 mg/kg/injection, schedule: Q01DX009 (ip), vehicle: saline 101 % of control | endpoint: mean survival time, dose: 12.5 mg/kg/injection, schedule: Q04DX003 (ip), vehicle: saline 93 % of control | endpoint: mean survival time, dose: 25.0 mg/kg/injection, schedule: Q01DX009 (ip), vehicle: saline 92 % of control | endpoint: mean survival time, dose: 25.0 mg/kg/injection, schedule: Q04DX003 (ip), vehicle: saline 106 % of control

CC(=O)NC1CCC(C(C)C)CC1 (stereo unspecified)
inactive: endpoint: mean survival time, dose: 50.0 mg/kg/injection, schedule: Q01DX001 (ip), vehicle: saline with Tween-80 102 % of control

CCC(C)C1NC(=O)C(CC(C)C)NC(=O)C(C(C)C)NC(=O)C2CSSCC(NC1=O)C(=O)N2 (stereo unspecified) (cyclo(CCVLI); disulfide 1-2; configuration not given here)
inactive: endpoint: mean survival time, dose: 31.25 micrograms/kg/injection, schedule: Q01DX009 (ip), vehicle: Klucel (hydroxypropylcellulose) (HPC) 93 % of control | endpoint: mean survival time, dose: 62.5 micrograms/kg/injection, schedule: Q01DX009 (ip), vehicle: Klucel (hydroxypropylcellulose) (HPC) 95 % of control | endpoint: mean survival time, dose: 125.0 micrograms/kg/injection, schedule: Q01DX009 (ip), vehicle: Klucel (hydroxypropylcellulose) (HPC) 98 % of control | endpoint: mean survival time, dose: 250.0 micrograms/kg/injection, schedule: Q01DX009 (ip), vehicle: Klucel (hydroxypropylcellulose) (HPC) 96 % of control | endpoint: mean survival time, dose: 500.0 micrograms/kg/injection, schedule: Q01DX009 (ip), vehicle: Klucel (hydroxypropylcellulose) (HPC) 98 % of control | endpoint: mean survival time, dose: 1000.0 micrograms/kg/injection, schedule: Q01DX009 (ip), vehicle: Klucel (hydroxypropylcellulose) (HPC) 96 % of control

CCCCOCCSc1ccccc1
inactive: [1] 96 % of control | [2] 93 % of control

O=c1[nH]c(=O)n(C2SC(CO)C(O)C2O)cc1F (stereo unspecified)
inactive: endpoint: mean survival time, dose: 178.0 mg/kg/injection, schedule: Q01DX009 (ip), vehicle: saline with Tween-80 113 % of control | endpoint: mean survival time, dose: 267.0 mg/kg/injection, schedule: Q01DX009 (ip), vehicle: saline with Tween-80 113 % of control | [3] 119 % of control

c1ccc2cc3nc4cc5ccccc5cc4nc3cc2c1
inactive: [4] 95 % of control | [5] 103 % of control | [6] 91 % of control

C=CCC1(CO)CCCCC1O (stereo unspecified)
inactive: endpoint: mean survival time, dose: 100.0 mg/kg/injection, schedule: Q04DX002 (ip), vehicle: saline with Tween-80 96 % of control | endpoint: mean survival time, dose: 200.0 mg/kg/injection, schedule: Q04DX002 (ip), vehicle: saline with Tween-80 100 % of control | endpoint: mean survival time, dose: 400.0 mg/kg/injection, schedule: Q04DX002 (ip), vehicle: saline with Tween-80 92 % of control

C=C(C)c1c2ccccc2cc2cccc(Sc3ccccc3)c12
inactive: [7] 95 % of control | [8] 93 % of control | [3] 95 % of control

O=C(O)C1CC1.[Ag]
inactive: endpoint: mean survival time, dose: 0.78 mg/kg/injection, schedule: Q01DX009 (ip), vehicle: water 100 % of control | endpoint: mean survival time, dose: 1.56 mg/kg/injection, schedule: Q01DX009 (ip), vehicle: water 100 % of control | endpoint: mean survival time, dose: 3.12 mg/kg/injection, schedule: Q01DX009 (ip), vehicle: water 96 % of control | endpoint: mean survival time, dose: 6.25 mg/kg/injection, schedule: Q01DX009 (ip), vehicle: water 102 % of control | endpoint: mean survival time, dose: 12.5 mg/kg/injection, schedule: Q01DX009 (ip), vehicle: water 102 % of control | endpoint: mean survival time, dose: 25.0 mg/kg/injection, schedule: Q01DX009 (ip), vehicle: water 104 % of control | [9] 93 % of control | [10] 93 % of control

Cc1ccc2c(c1)C1(SC(C)C(=O)N1c1ccc(Cl)cc1)C(=O)N2 (stereo unspecified)
inactive: endpoint: median survival time, dose: 25.0 mg/kg/injection, schedule: Q01DX005 (ip), vehicle: saline with Tween-80 107 % of control | endpoint: median survival time, dose: 50.0 mg/kg/injection, schedule: Q01DX005 (ip), vehicle: saline with Tween-80 113 % of control | endpoint: median survival time, dose: 100.0 mg/kg/injection, schedule: Q01DX005 (ip), vehicle: saline with Tween-80 116 % of control | endpoint: median survival time, dose: 200.0 mg/kg/injection, schedule: Q01DX005 (ip), vehicle: saline with Tween-80 116 % of control | endpoint: median survival time, dose: 400.0 mg/kg/injection, schedule: Q01DX005 (ip), vehicle: saline with Tween-80 123 % of control

CN(C)P1(=S)NCC(C(C)(C)C)CO1 (stereo unspecified)
inactive: endpoint: mean survival time, dose: 15.63 mg/kg/injection, schedule: Q01DX001 (ip), vehicle: distilled water + Tween-80 103 % of control | endpoint: mean survival time, dose: 31.25 mg/kg/injection, schedule: Q01DX001 (ip), vehicle: distilled water + Tween-80 103 % of control | endpoint: mean survival time, dose: 62.5 mg/kg/injection, schedule: Q01DX001 (ip), vehicle: distilled water + Tween-80 103 % of control | endpoint: mean survival time, dose: 125.0 mg/kg/injection, schedule: Q01DX001 (ip), vehicle: distilled water + Tween-80 97 % of control | endpoint: mean survival time, dose: 250.0 mg/kg/injection, schedule: Q01DX001 (ip), vehicle: distilled water + Tween-80 92 % of control

C(=NC1CCCCC1)c1c[nH]c2ccccc12
inactive: [7] 87 % of control | [4] 91 % of control | [8] 89 % of control | [5] 91 % of control | [6] 98 % of control

O=C(CC(c1ccc(Cl)cc1)P(=O)(c1ccccc1)c1ccccc1)c1ccccc1 (stereo unspecified)
inactive: [7] 90 % of control | [8] 98 % of control | [3] 97 % of control

CCC(/C=N/N=C(N)N)=N\N=C(N)N
inactive: endpoint: mean survival time, dose: 15.0 mg/kg/injection, schedule: Q01DX010 (ip), vehicle: saline 95 % of control | endpoint: mean survival time, dose: 60.0 mg/kg/injection, schedule: Q01DX010 (ip), vehicle: saline 101 % of control

ClCCCCC(Cl)(Cl)Cl
inactive: [11] 101 % of control | [12] 98 % of control | [13] 93 % of control

C=CC1CN2CCC1CC2C(O)c1ccnc2ccc(OC)cc12 (stereo unspecified) (tested in a mixture with another compound)
inactive: endpoint: mean survival time, dose: 50.0 mg/kg/injection, schedule: Q01DX009 (ip), vehicle: saline with Tween-80 92 % of control and 95 % of control | [1] 95 % of control and 89 % of control | [7] 103 % of control and 98 % of control | [4] 99 % of control and 93 % of control | [2] 96 % of control | [8] 88 % of control and 95 % of control | [5] 92 % of control and 90 % of control | endpoint: mean survival time, dose: 400.0 mg/kg/injection, schedule: Q01DX001 (ip), vehicle: saline 89 % of control

CC(=O)/C=C\C1OC(n2ccc(=O)[nH]c2=O)C2OC(C)(C)OC12 (stereo unspecified)
inactive: endpoint: mean survival time, dose: 12.5 mg/kg/injection, schedule: Q01DX005 (ip), vehicle: distilled water + Tween-80 105 % of control | endpoint: mean survival time, dose: 25.0 mg/kg/injection, schedule: Q01DX005 (ip), vehicle: distilled water + Tween-80 103 % of control | endpoint: mean survival time, dose: 50.0 mg/kg/injection, schedule: Q01DX005 (ip), vehicle: distilled water + Tween-80 97 % of control | endpoint: mean survival time, dose: 100.0 mg/kg/injection, schedule: Q01DX005 (ip), vehicle: distilled water + Tween-80 102 % of control | endpoint: mean survival time, dose: 200.0 mg/kg/injection, schedule: Q01DX005 (ip), vehicle: distilled water + Tween-80 103 % of control

NC(=Nc1ccccc1)Nc1ccccc1 (tested in a mixture with another compound)
inactive: [9] 103 % of control | [10] 97 % of control | endpoint: mean survival time, dose: 400.0 mg/kg/injection, schedule: Q04DX003 (ip), vehicle: saline 100 % of control

O=C(C=C(C(F)(F)Cl)C(F)(F)Cl)c1cccs1
inactive: endpoint: mean survival time, dose: 5.0 mg/kg/injection, schedule: Q04DX003 (ip), vehicle: saline 98 % of control | endpoint: mean survival time, dose: 10.0 mg/kg/injection, schedule: Q04DX003 (ip), vehicle: saline 104 % of control | endpoint: mean survival time, dose: 20.0 mg/kg/injection, schedule: Q04DX003 (ip), vehicle: saline 103 % of control

CC(=O)Nc1cc(S(=O)(=O)O)cc(N)c1O
inactive: [11] 114 % of control | [12] 103 % of control | [13] 106 % of control

O=S(=O)(Oc1ccccc1)c1ccc(Cl)cc1
inactive: [7] 95 % of control | [4] 98 % of control | [8] 98 % of control | [5] 96 % of control | [3] 98 % of control | [6] 102 % of control

Reference: PubChem BioAssay AID256 (DTP/NCI, 2004)
